The term IC50 denotes the concentration needed to halve the response being measured.

The target in this experiment is full-length human ATR protein (Homo sapiens (Human), UniProt Q13535). Kind of experiment: Binding assay ATR (TR-FRET tracer displacement). As to conditions: TR-FRET. The gist of the method: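 Full-length human GST-ATR co-purified with ATRIP, pre-complexed 30 min at 22 °C with anti-GST-Tb antibody, then pre-bound with compound 10 min. Tracer A or B added (2 µl of 100 nM solution), 30 min at 22 °C.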
full-length human ATR protein, sequence (Q13535 other isoform, or with tags, fused parts or gaps): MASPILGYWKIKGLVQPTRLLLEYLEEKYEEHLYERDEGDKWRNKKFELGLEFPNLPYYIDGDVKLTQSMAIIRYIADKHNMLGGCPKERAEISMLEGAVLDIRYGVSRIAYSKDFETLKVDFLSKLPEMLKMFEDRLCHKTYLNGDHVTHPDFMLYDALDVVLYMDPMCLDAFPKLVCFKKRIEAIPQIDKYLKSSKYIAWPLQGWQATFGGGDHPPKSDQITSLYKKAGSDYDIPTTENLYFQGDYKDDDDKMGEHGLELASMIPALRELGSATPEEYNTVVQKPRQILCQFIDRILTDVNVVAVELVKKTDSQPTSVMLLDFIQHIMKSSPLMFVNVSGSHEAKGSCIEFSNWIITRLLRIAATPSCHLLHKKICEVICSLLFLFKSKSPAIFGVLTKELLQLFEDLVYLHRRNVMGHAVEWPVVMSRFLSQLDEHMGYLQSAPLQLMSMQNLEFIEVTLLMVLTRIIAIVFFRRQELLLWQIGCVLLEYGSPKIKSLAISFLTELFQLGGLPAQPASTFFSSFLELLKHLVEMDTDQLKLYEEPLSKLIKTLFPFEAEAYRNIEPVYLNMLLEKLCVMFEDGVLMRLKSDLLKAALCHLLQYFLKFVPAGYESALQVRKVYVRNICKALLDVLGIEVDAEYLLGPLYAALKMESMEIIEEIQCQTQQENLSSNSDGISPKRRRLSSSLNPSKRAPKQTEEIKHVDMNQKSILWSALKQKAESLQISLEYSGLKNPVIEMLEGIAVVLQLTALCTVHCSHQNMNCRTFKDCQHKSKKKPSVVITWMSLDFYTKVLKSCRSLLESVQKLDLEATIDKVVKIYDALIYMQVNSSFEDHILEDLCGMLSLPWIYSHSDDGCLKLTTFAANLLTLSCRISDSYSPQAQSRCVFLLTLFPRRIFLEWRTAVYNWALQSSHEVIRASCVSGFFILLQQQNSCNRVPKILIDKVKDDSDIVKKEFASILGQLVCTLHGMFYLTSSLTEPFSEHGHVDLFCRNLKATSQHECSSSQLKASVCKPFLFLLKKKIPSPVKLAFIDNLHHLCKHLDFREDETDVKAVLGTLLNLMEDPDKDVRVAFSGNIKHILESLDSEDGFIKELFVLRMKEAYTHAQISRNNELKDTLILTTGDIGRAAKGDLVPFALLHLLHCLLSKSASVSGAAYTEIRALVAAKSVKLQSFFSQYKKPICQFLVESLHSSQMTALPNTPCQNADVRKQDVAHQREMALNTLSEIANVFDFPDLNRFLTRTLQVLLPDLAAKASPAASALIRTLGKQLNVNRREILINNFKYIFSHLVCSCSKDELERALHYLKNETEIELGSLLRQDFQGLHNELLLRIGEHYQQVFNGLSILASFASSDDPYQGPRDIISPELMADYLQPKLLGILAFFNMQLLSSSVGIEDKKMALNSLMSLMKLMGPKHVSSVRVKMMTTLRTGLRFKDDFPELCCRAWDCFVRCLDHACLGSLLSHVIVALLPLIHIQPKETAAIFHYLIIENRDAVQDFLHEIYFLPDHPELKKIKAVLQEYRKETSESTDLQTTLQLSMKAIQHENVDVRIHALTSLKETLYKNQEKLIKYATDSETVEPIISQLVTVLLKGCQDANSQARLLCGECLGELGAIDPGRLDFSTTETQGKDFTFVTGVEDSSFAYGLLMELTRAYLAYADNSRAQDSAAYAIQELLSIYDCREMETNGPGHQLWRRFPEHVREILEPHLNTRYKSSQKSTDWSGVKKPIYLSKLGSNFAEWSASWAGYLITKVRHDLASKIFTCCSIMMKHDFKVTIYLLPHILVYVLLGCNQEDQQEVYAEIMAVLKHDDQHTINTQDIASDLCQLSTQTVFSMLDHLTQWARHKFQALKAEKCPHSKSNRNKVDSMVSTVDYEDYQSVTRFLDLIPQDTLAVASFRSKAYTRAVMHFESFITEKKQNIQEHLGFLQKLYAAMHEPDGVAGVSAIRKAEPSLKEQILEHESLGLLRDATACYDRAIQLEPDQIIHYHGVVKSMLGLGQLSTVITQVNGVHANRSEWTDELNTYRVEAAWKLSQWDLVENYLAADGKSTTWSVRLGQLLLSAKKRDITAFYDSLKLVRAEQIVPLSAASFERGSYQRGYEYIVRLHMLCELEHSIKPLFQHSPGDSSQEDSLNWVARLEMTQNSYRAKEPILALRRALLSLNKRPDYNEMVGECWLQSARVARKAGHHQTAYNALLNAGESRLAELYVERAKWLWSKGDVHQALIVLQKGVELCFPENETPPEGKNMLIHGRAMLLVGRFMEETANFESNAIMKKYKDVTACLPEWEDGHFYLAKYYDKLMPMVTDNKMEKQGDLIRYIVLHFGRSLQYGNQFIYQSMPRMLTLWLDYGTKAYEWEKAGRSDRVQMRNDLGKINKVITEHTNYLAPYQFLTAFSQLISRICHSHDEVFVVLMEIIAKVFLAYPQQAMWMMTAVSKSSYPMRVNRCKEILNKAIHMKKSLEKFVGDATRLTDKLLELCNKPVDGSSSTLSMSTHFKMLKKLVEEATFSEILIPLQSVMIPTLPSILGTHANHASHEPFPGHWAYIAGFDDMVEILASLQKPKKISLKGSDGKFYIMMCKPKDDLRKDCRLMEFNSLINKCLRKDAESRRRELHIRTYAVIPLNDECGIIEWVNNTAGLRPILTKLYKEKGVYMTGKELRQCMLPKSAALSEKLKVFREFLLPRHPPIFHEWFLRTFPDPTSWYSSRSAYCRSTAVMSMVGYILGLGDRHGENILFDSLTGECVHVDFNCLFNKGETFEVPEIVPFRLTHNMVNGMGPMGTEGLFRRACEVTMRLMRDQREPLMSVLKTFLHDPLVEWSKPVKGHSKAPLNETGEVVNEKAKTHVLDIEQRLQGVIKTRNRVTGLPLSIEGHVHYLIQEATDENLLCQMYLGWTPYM
full-length human ATR protein, sequence (Q8WXE1 other isoform, or with tags, fused parts or gaps partner): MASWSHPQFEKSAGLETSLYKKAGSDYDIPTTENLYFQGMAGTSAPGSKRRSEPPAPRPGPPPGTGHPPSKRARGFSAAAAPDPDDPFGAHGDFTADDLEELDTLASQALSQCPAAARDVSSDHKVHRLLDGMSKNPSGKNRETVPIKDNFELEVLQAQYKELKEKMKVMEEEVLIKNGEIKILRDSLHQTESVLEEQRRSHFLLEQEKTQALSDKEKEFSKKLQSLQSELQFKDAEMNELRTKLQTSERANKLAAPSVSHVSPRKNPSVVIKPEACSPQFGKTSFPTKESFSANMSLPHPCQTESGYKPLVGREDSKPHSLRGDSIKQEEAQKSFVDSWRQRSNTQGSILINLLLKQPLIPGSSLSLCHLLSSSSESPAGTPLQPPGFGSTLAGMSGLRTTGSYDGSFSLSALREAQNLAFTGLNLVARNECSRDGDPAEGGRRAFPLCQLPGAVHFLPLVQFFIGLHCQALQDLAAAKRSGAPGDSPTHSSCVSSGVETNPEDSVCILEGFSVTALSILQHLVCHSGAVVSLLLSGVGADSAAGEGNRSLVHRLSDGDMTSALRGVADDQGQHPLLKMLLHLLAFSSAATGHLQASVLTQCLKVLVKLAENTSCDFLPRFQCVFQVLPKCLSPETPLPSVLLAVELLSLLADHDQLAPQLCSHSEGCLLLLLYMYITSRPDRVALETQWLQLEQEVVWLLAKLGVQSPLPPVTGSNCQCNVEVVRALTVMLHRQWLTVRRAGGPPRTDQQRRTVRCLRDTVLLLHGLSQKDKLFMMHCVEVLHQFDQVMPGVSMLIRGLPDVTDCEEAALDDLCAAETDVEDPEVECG
(In general: In TR-FRET formats the signal depends on donor and acceptor labels being close together.)

The mark [1] stands for this setting: tracer A, read-out: ATR binding (tracer A) IC50.
The mark [2] stands for this setting: tracer B, read-out: ATR binding (tracer B) IC50.

SMILES strings stand for the structures. Read-outs that look alike come from different tables or passages of the source.

Turning to `C[C@@H]1COCCN1c1cc(-c2cncn2Cc2ccccc2)c2ccnc(-c3ccn[nH]3)c2n1` [Example 76, 4-(1-benzyl-1H-imidazol-5-yl)-2-[(3R)-3-methylmorpholin-4-yl]-8-(1H-pyrazol-5-yl)-1,7-naphthyridine], the IC50 under setting [1] is 8.91 nM.
`CCOc1cc(N2CCOCC2)nc2c(-c3cc[nH]n3)nccc12` [Example 43, 4-ethoxy-2-(morpholin-4-yl)-8-(1H-pyrazol-3-yl)-[1,7]naphthyridine]: the IC50 is 493 nM under setting [1] and 258 nM under setting [2].
Turning to `O=S1(=O)CCC12CN(c1cc(N3CCOCC3)nc3c(-c4ccn[nH]4)nccc13)C2` [Example 425, 4-(1,1-dioxido-1-thia-6-azaspiro[3.3]hept-6-yl)-2-(morpholin-4-yl)-8-(1H-pyrazol-5-yl)-1,7-naphthyridine], under setting [1], the IC50 was 1000 nM.
On the same count and under the same terms, in the case of `C[C@@H]1COCCN1c1cc(-c2[nH]nnc2C2CC2)c2ccnc(-c3ccn[nH]3)c2n1` [Example 194, 4-(4-cyclopropyl-1H-1,2,3-triazol-5-yl)-2-[(3R)-3-methylmorpholin-4-yl]-8-(1H-pyrazol-5-yl)-1,7-naphthyridine] it was 37.6 nM; in that of `C[C@@H]1COCCN1c1cc(N2CCC(CO)CC2)c2ccnc(-c3ccn[nH]3)c2n1` [Example 84, (1-{2-[(3R)-3-methylmorpholin-4-yl]-8-(1H-pyrazol-5-yl)-1,7-naphthyridin-4-yl}piperidin-4-yl)methanol], 6.6 nM.
On the same count and under the same terms, under `Cc1cc(-c2cc(N3CCOCC3)nc3c(-c4ccn[nH]4)nccc23)cc(C)c1O` [Example 311, 2,6-dimethyl-4-[2-(morpholin-4-yl)-8-(1H-pyrazol-5-yl)-1,7-naphthyridin-4-yl]phenol] stands 376 nM; under `CNC(=O)[C@@H]1CCCN1c1cc(N2CCOCC2)nc2c(-c3ccn[nH]3)nccc12` [Example 432, N-methyl-1-[2-(morpholin-4-yl)-8-(1H-pyrazol-5-yl)-1,7-naphthyridin-4-yl]-prolinamide], 2040 nM; under `Clc1ccc(-c2cc(N3CCOCC3)nc3c(-c4ccn[nH]4)nccc23)cc1` [Example 316, 4-(4-chlorophenyl)-2-(morpholin-4-yl)-8-(1H-pyrazol-5-yl)-1,7-naphthyridine], 53.2 nM.
As for `C[C@@H]1CN(c2cc(N3CCOCC3)nc3c(-c4ccn[nH]4)nccc23)CCO1` [Example 162, 4-[(2R)-2-methylmorpholin-4-yl]-2-(morpholin-4-yl)-8-(1H-pyrazol-5-yl)-1,7-naphthyridine], the IC50 under setting [1] is 100 nM.
For the molecule `C[C@@H]1COCCN1c1cc(OCCCNC(=O)OC(C)(C)C)c2ccnc(-c3ccn[nH]3)c2n1` [Example 54, Tert-butyl [3-({2-[(3R)-3-methylmorpholin-4-yl]-8-(1H-pyrazol-5-yl)-1,7-naphthyridin-4-yl}oxy)propyl]carbamate], the IC50 runs as follows: under setting [1], 288 nM; under setting [2], 129 nM.
`Nc1ccccc1-c1cc(N2CCOCC2)nc2c(-c3ccn[nH]3)nccc12` [Example 343, 2-[2-(morpholin-4-yl)-8-(1H-pyrazol-5-yl)-1,7-naphthyridin-4-yl]aniline]: the IC50 under setting [1] was 19.8 nM.
Same read-out and setting: in the case of `COc1ncc(-c2cc(N3CCOC[C@H]3C)nc3c(-c4ccn[nH]4)nccc23)cc1C` [Example 96, 4-(6-methoxy-5-methylpyridin-3-yl)-2-[(3R)-3-methylmorpholin-4-yl]-8-(1H-pyrazol-5-yl)-1,7-naphthyridine] it was 12.7 nM.
Still for that read-out and setting: under `C[C@@H]1COCCN1c1cc(OCCCN)c2ccnc(-c3ccn[nH]3)c2n1` [Example 193, 3-({2-[(3R)-3-methylmorpholin-4-yl]-8-(1H-pyrazol-5-yl)-1,7-naphthyridin-4-yl}oxy)propan-1-amine] stands 245 nM.
Take `C1=C(c2cc(N3CCOCC3)nc3c(-c4ccn[nH]4)nccc23)CCNC1` [Example 17, 2-(morpholin-4-yl)-8-(1H-pyrazol-5-yl)-4-(1,2,3,6-tetrahydropyridin-4-yl)-1,7-naphthyridine]: the IC50 under setting [1] turned out to be 185 nM and the IC50 under setting [2] amounted to 117 nM.

Source of the values: US9549932B2, “2-(morpholin-4-yl)-1,7-naphthyridines” (BAYER PHARMA AKTIENGESELLSCHAFT, priority 2014, dated 2017).
